Where two headings read alike, the source gives them in different places.
Tests used:
α-glucosidase [1] = assay: α-glucosidase inhibition assay (p-nitrophenol release from p-nitrophenol-α-D-glucopyranoside); format: biochemical, Yeast; conditions: two-fold serial dilution; acarbose positive control; read-out: α-glucosidase inhibitory activity IC50
Experimental: In this study, each compound was initially tested at 100 μg/mL.
(§1) The α-glucosidase inhibition assay was performed according to previous protocols. The assay was based on the release of p-nitrophenol from p-nitrophenol-α-D-glucopyranoside (substrate). The test samples were prepared by dissolving in 50% DMSO. […] The sample solution (10 μL) and 0.1 U/mL α-glucosidase (40 μL) in phosphate buffer (pH 6.8) were added to a 96-well plate. The mixture was preincubated at 37 °C for 10 min before adding 2 mM p-nitrophenol-α-D-glucopyranoside (50 μL). Then, the reaction was incubated again at 37 °C for 20 min. Finally, 1 M Na2CO3 solution (100 μL) was added to stop the reaction. The absorbance of the mixture was determined using a microplate reader at 405 nm.

α-glucosidase [2] = assay: α-glucosidase enzyme kinetic study (Lineweaver–Burk and secondary plots); format: biochemical, Yeast; conditions: for mode of α-glucosidase inhibition: Lineweaver–Burk plots
Experimental: Further investigation was conducted on compound 2 to study its kinetic properties with regard to the enzyme α-glucosidase using varying concentrations of the substrate.
as §1
An enzyme kinetic study was conducted based on the α-glucosidase assay as mentioned above. […] The inhibition mode was determined by double-reciprocal Lineweaver–Burk plot (1/V vs. 1/[S]). In order to estimate the Ki value, slopes of double-reciprocal lines were used to construct a secondary plot, and the Ki was calculated from the line equation of the plot.

Row | IC50 (α-glucosidase [1]) [µM] | Ki (α-glucosidase [2]; from secondary plot of slopes of double-reciprocal lines) [µM] | Vmax (α-glucosidase [2]; inhibitor dose 11 μM, PNPG 0.25 to 2 mM) | Km (α-glucosidase [2]; inhibitor dose 11 μM, PNPG 0.25 to 2 mM, read-out: Km) [µM] | Vmax (α-glucosidase [2]; inhibitor dose 22 μM, PNPG 0.25 to 2 mM) | Km (α-glucosidase [2]; inhibitor dose 22 μM, PNPG 0.25 to 2 mM, read-out: Km) [µM] | Km (α-glucosidase [2]; with changing inhibitor concentration, dose not given, read-out: Km as stated in text) [µM] | SMILES | mode of α-glucosidase inhibition (α-glucosidase [2]) | Vmax (α-glucosidase [2]; inhibitor dose 465 μM, PNPG 0.25 to 2 mM) | Km (α-glucosidase [2]; inhibitor dose 465 μM, PNPG 0.25 to 2 mM, read-out: Km) [µM] | Vmax (α-glucosidase [2]; inhibitor dose 930 μM, PNPG 0.25 to 2 mM) | Vmax as stated in text (α-glucosidase [2]; with changing inhibitor concentration, dose not given)
1 | 19.8 ± 0.9 | 20.4 | 0.086 ∆OD/min | 1230 | 0.052 ∆OD/min | 1190 | 1550 | COc1cc2c3c(c1O)CCc1cc(OC)c(OC)c(c1-3)OC21c2cccc(O)c2-c2c1cc(OC)c(O)c2OC (centres unmarked) [Compound 2, dendrogibsol] | noncompetitive | – | – | – | –
2 | 185 ± 6.9 | – | – | – | – | – | – | COc1cc(O)c2c(c1)CCc1cc(O)ccc1-2 [Compound 7, lusianthridin] | – | – | – | – | –
3 | – | – | – | – | – | – | – | C[C@H]1O[C@H](O[C@H]2[C@H](O)[C@@H](O)[C@@H](O[C@H]3[C@H](O)[C@@H](O)C(O)O[C@@H]3CO)O[C@@H]2CO)[C@H](O)[C@@H](O)[C@@H]1N[C@H]1C=C(CO)[C@@H](O)[C@H](O)[C@H]1O (some centres unmarked) [acarbose, reference compound] | competitive | 0.10 ∆OD/min | 6740 | 0.11 ∆OD/min | 0.11 ∆OD/min
